# Measured values taken from patent publication US11452725B2, “Chiral diaryl macrocycles and uses thereof” (TURNING POINT THERAPEUTICS, INC., priority 2015, dated 2022).
# Test system: CD44
# Assay: CD44 expression by immunoblotting in H2228 cells
# Assay type: cell-based, human
# Conditions: 48 hours treatment, 0-1000 nM
# Description: NSCLC cell line H2228 (harboring endogenous EML4-ALK fusion gene) was cultured in RPMI medium supplemented with 10% fetal bovine serum and 100 U/mL of penicillin/streptomycin. Ba/F3 and NIH3T3 cells stably expressing ROS1, or TRKA, or TRKB, or TRKC (WT or mutant) were cultured as mentioned above. […] Cells were collected after treatment and lysed in RIPA buffer (50 mM Tris, pH 7.4, 150 mM NaCl, 1% NP-40, 0.5% Deoxycholate, 0.1% SDS) supplemented with 10 mM EDTA, 1× Halt protease and phosphatase inhibitors (Thermo Scientific). Protein lysates (approximately 20 μg) was resolved on 4-12% Bolt Bis-Tris precasted gels with MES running buffer (Life Technologies), transferred to nitrocellulose membranes using Trans-Blot Turbo Transfer System (Bio-Rad) and detected with antibodies targeting phosphorylated phosphorylated ROS1 and total ROS1 (Cell Signaling Technology), phosphorylated TRK A/B (Cell Signaling Technology), total TRKA antibody (Santa Cruz Biotechnology), phosphorylated SRC Y416 (Cell Signaling Technology), total SRC (Cell Signaling Technology), phosphorylated FAK Y576/577 (Cell Signaling Technology), total FAK (Cell Signaling Technology), phosphorylated paxillin Y118 (Cell Signaling Technology), total paxillin (Cell Signaling Technology), phosphorylated EGFR and total EGFR, CD44, and Tubulin (Sigma). […]
smiles,measurement,value
"C[C@@H](Oc1cc(-c2cnn(C3CCNCC3)c2)cnc1N)c1c(Cl)ccc(F)c1Cl [crizotinib, reference compound]",CD44 expression level,does not show down-regulation of CD44 expression
